Experimental data as given in paper PMC4500165 (Pure and applied chemistry. Chimie pure et appliquee, 2013).

Target: T1, peanut agglutinin (PNA) (Arachis hypogaea, UniProt P02872)
T1 sequence (P02872 24-273): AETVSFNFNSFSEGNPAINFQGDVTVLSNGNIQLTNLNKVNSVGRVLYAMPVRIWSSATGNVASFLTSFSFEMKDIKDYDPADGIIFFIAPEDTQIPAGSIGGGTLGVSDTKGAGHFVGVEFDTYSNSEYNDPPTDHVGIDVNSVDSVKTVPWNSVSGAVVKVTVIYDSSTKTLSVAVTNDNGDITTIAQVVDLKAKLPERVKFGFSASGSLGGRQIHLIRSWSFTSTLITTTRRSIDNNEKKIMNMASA
Assay: isothermal titration calorimetry, one-site model
Assay type: binding

## [N-]=[N+]=Nc1c(F)c(F)c(C(=O)NCCOCCOCCS[C@@H]2O[C@H](CO)[C@@H](O[C@@H]3O[C@H](CO)[C@H](O)[C@H](O)[C@H]3O)[C@H](O)[C@H]2O)c(F)c1F [compound 5, 2-(2-(2-(4-Azido-2,3,5,6-tetrafluorobenzamido)ethoxy)ethoxy)ethyl 4-O-β-D-galactopyranosyl-1-thio-β-D-glucopyranoside]
  Kd: 549 µM
